Data published in patent publication US9079913B2, “Spiro-oxindole MDM2 antagonists” (The Regents of the University of Michigan, priority 2009, dated 2015).
Read-outs that look alike come from different tables or passages of the source.

Legend:
[1] = tested on: Isogenic HCT-116 colon cancer cell lines; experiment: cells; type: cell-based;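 further: cells grown in 96-well plates in McCoy's 5A medium with 10% FBS, exposed to compound for 4 days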
Experimental: Cells were seeded in 96-well flat bottom cell culture plates at a density of 2−3×10^3 cells/well with compounds and incubated for 4 days.

[2] = tested on: cancer cell lines with wild-type p53 / mutated or deleted p53 (ATCC); experiment: Cell growth assay (WST-8), other cancer cell lines; type: cell-based
[3] = molecular target: recombinant human His-tagged MDM2 protein (residues 1-118) (Homo sapiens (Human), UniProt Q00987); experiment: Fluorescence-polarization MDM2 binding assay;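 further: fluorescence polarization read after three hours of incubation in potassium phosphate buffer containing bovine gamma globulin and Triton X-100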
recombinant human His-tagged MDM2 protein (residues 1-118), sequence (Q00987 1-118): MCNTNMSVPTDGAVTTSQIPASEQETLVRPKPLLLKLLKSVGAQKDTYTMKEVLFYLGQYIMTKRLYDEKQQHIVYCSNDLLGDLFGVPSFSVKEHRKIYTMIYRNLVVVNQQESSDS

[4] = Homo sapiens, HCT-116, read-out: HCT-116 (p53-/-) IC50, Table 19A, HCT-116 p53-/-, cell growth
[5] = Homo sapiens, HCT-116, read-out: HCT-116 (p53 wild-type) IC50, Table 19A, HCT-116 p53 wild-type, cell growth
[6] = Homo sapiens, LNCaP, Table 19A, LNCAP cells, p53 wild-type, cell growth, read-out: LNCAP (p53 wild-type) IC50
[7] = Homo sapiens, PC-3, Table 19A, PC-3 cells, deleted p53, cell growth, read-out: PC-3 (deleted p53) IC50
[8] = Table 19A, FP binding assay, read-out: MDM2 IC50
[9] = Homo sapiens, HCT-116, read-out: HCT116p53KO IC50, Table 19D, HCT116 p53KO
[10] = Homo sapiens, HCT-116, read-out: HCT116p53WT IC50, Table 19D, HCT116 p53WT
[11] = Homo sapiens, LNCaP, Table 19D, LNCaP cells, read-out: LNCaP IC50
[12] = Homo sapiens, PC-3, Table 19D, PC3 cells, read-out: PC3 IC50
[13] = Table 19D, read-out: MDM2 Binding Affinities IC50
[14] = read-out: Inhibition of cell growth IC50, HCT116 p53 KO, Table 19B, HCT116 p53 KO
[15] = read-out: Inhibition of cell growth IC50, HCT116 p53 WT, Table 19B, HCT116 p53 WT
[16] = Table 19B, LNCaP cells, read-out: Inhibition of cell growth IC50, LNCaP
[17] = Table 19B, PC3 cells, read-out: Inhibition of cell growth IC50, PC3
[18] = Table 19B, read-out: Binding affinities to MDM2 protein as determined by FP based assay IC50
[19] = Homo sapiens, HCT-116, read-out: Inhibition of cell growth IC50, HCT116 p53 KO, Table 19B, HCT116 p53 KO
[20] = Homo sapiens, HCT-116, read-out: Inhibition of cell growth IC50, HCT116 p53 WT, Table 19B, HCT116 p53 WT
[21] = Homo sapiens, LNCaP, Table 19B, LNCaP cells, read-out: Inhibition of cell growth IC50, LNCaP
[22] = Homo sapiens, PC-3, Table 19B, PC3 cells, read-out: Inhibition of cell growth IC50, PC3

CC(C)(C)C[C@H]1N[C@@H](C(=O)NCC[C@H](O)C=O)[C@H](c2cccc(Cl)c2)[C@@]12C(=O)Nc1cc(Cl)c(F)cc12 [MI-219-M1 (a)]
IC50 [1, 4]: > 10 µM | IC50 [1, 5]: < 3 µM | IC50 [2, 6]: < 3 µM | IC50 [2, 7]: > 10 µM | IC50 [3, 8]: < 1 µM

CN(C)C[C@@H](O)CCNC(=O)[C@@H]1N[C@H](CC(C)(C)C)[C@]2(C(=O)Nc3cc(Cl)c(F)cc32)[C@H]1c1ccc(F)c(Cl)c1 [MI-319-28]
IC50 ([1]; Homo sapiens, HCT-116, read-out: Cell growth inhibition using WST assay, HCT116 p53KO IC50, Table 19C, HCT116 p53KO): > 5 µM | IC50 ([1]; Homo sapiens, HCT-116, read-out: Cell growth inhibition using WST assay, HCT116 p53WT IC50, Table 19C, HCT116 p53WT): < 5 µM | IC50 ([2]; Homo sapiens, LNCaP, Table 19C, LNCaP cells, read-out: Cell growth inhibition using WST assay, LNCaP IC50): < 5 µM | IC50 ([2]; Homo sapiens, PC-3, Table 19C, PC3 cells, read-out: Cell growth inhibition using WST assay, PC3 IC50): > 5 µM | IC50 ([3]; Table 19C, read-out: Bidning affinities to MDM2 as determined using FP assay IC50): < 5 µM

CN1CCC(CNC(=O)[C@@H]2N[C@H](CC(C)(C)C)[C@]3(C(=O)Nc4cc(Cl)ccc43)[C@H]2c2cccc(Cl)c2F)CC1 [MI-519-53-1]
IC50 [1, 9]: > 3 µM | IC50 [1, 10]: < 1 µM | IC50 [2, 11]: < 1 µM | IC50 [2, 12]: > 3 µM | IC50 ([2]; Homo sapiens, Table 19D, SJSA-1 cells, unit inferred, read-out: SJSA-1): < 1 µM | IC50 [3, 13]: < 1 µM

CN1[C@@H](C(=O)NCC[C@H](O)CO)[C@H](c2cccc(Cl)c2)[C@@]2(C(=O)Nc3cc(Cl)c(F)cc32)[C@H]1CC(C)(C)C [MI-708A]
IC50 [1, 14]: 95.6 ± 18.2 µM | IC50 [1, 15]: 3.8 ± 1 µM | IC50 [2, 16]: 3.5 µM | IC50 [2, 17]: 83.8 ± 11.3 µM | IC50 [3, 18]: > 3 µM

CC(C)(C)C[C@H]1N[C@@H](CO)[C@H](c2cccc(Cl)c2)[C@@]12C(=O)Nc1cc(Cl)c(F)cc12 [MI-519-20]
IC50 [1, 9]: 13.4 ± 0.8 µM | IC50 [1, 10]: 1.9 ± 0.1 µM | IC50 [2, 11]: 2.2 ± 0.2 µM | IC50 [2, 12]: 9 ± 1.1 µM | IC50 [3, 13]: < 5 µM

O=C(NCC[C@H](O)CO)[C@@H]1N[C@H](CC2CCCCC2)[C@]2(C(=O)Nc3cc(Cl)c(F)cc32)[C@H]1c1cccc(Cl)c1 [MI-716C]
IC50 [1, 14]: 12 ± 3.4 µM | IC50 [1, 15]: 0.7 ± 0.2 µM | IC50 [2, 16]: 0.8 ± 0.1 µM | IC50 [2, 17]: 8 ± 2 µM | IC50 [3, 18]: < 1 µM

CN(C)CCC(=O)N1CCN(C(=O)[C@@H]2N[C@H](CC(C)(C)C)[C@]3(C(=O)Nc4cc(Cl)c(F)cc43)[C@H]2c2cccc(Cl)c2)CC1 [MI-746]
IC50 [1, 4]: 6.7 ± 1.8 µM | IC50 [1, 5]: 2.3 ± 0.1 µM | IC50 [2, 6]: 2.2 ± 0.4 µM | IC50 [2, 7]: 6.9 ± 1.2 µM | IC50 [3, 8]: < 10 µM

CC(C)(C)C[C@H]1N[C@@H](C(=O)NCC[C@H](O)CO)[C@H](c2cccc(Cl)c2)[C@@]12C(=O)Nc1cc(F)c(F)cc12 [MI-519-9]
IC50 [1, 9]: > 10 µM | IC50 [1, 10]: < 3 µM | IC50 [2, 11]: < 3 µM | IC50 [2, 12]: > 10 µM | IC50 [3, 13]: < 3 µM

CC[C@H](C)[C@H](N)C(=O)OC1CCC(NC(=O)[C@@H]2N[C@H](CC(C)(C)C)[C@]3(C(=O)Nc4cc(Cl)ccc43)[C@H]2c2cccc(Cl)c2F)CC1 (stereo partly drawn) [MI-904]
IC50 [1, 4]: 6.1 µM | IC50 [1, 5]: < 3 µM | IC50 [2, 6]: < 3 µM | IC50 [2, 7]: 3.1 µM | IC50 ([2]; Homo sapiens, SJSA-1, Table 19A, SJSA-1 cells, p53 wild-type, cell growth, read-out: SJSA-1 (p53 wild-type) IC50): < 3 µM | IC50 [3, 8]: < 1 µM

CC(C)(C)C[C@H]1N[C@@H](C(=O)NCCC2CCC(O)C2)[C@H](c2cccc(Cl)c2F)[C@@]12C(=O)Nc1cc(Cl)ccc12 (stereo partly drawn) [MI-755]
IC50 [1, 19]: > 10 µM | IC50 [1, 20]: < 3 µM | IC50 [2, 21]: < 3 µM | IC50 [2, 22]: > 10 µM | IC50 [3, 18]: < 1 µM

CC(C)(C)C[C@H]1N[C@@H](C(=O)NCC[C@H](O)CO)[C@H](c2ccc(F)c(Cl)c2)[C@@]12C(=O)Nc1cc(F)ccc12 [MI-519-14]
IC50 [1, 9]: > 10 µM | IC50 [1, 10]: < 5 µM | IC50 [2, 11]: < 5 µM | IC50 [2, 12]: > 10 µM | IC50 [3, 13]: < 1 µM

CC(C)(C)C[C@H]1N[C@@H](C(=O)NCC[C@H](O)CO)[C@H](c2ccc(F)c(Cl)c2)[C@@]12C(=O)Nc1cc(F)c(F)cc12 [MI-519-8]
IC50 [1, 9]: > 10 µM | IC50 [1, 10]: < 5 µM | IC50 [2, 11]: < 5 µM | IC50 [2, 12]: > 10 µM | IC50 [3, 13]: < 3 µM

CC(C)CC(C)(C)C[C@H]1N[C@@H](C(=O)NCCN2CCOCC2)[C@H](c2cccc(Cl)c2F)[C@@]12C(=O)Nc1cc(F)c(F)cc12 [MI-730]
IC50 [1, 19]: 7.8 ± 0.7 µM | IC50 [1, 20]: 1.4 ± 0.3 µM | IC50 [2, 21]: 1.7 ± 0.5 µM | IC50 [2, 22]: 6.3 ± 1.4 µM | IC50 [3, 18]: < 1 µM

CC(C)(C)C[C@H]1N[C@@H](C(=O)NCCCO)[C@H](c2cccc(Cl)c2)[C@@]12C(=O)Nc1cc(Cl)c(F)cc12 [MI-219-M8]
IC50 [1, 9]: 18 ± 4.1 µM | IC50 [1, 10]: 1.4 ± 0.9 µM | IC50 [2, 11]: 1.1 ± 0.5 µM | IC50 [2, 12]: 9.2 ± 1.6 µM | IC50 [3, 13]: < 1 µM
